Source: patent US8273771B2, “Ischemic disorder or disease inhibitors” (Pronas Pharma AB, priority 2007, dated 2012)

Columns and labels:
Type in all cases: in vivo, rat
[1] = system: rats with induced SAH; test: Cortical blood flow measured with Laser Doppler; details: intracisternal injection
Source text: Subarachnoid hemorrhage was induced by a model originally devised by Svendgaard et al and carefully described by Prunell et al (2003). Male Sprague-Dawley rats (350-400 g) were anaesthetized using 5% halothane (Halocarbon Laboratories, River Edge, N.J.) in N2O/O2 (30:70). The rat was intubated and artificially ventilated with inhalation of 0.5-1.5% halothane in N2O/O2 (70:30) during the surgical procedure. The depth of anaesthesia was carefully monitored and the respiration checked by regularly withdrawing arterial blood samples for blood gas analysis (Radiometer, Copenhagen, Denmark). An electric temperature probe was inserted into the rectum of the rat to record the temperature, which was maintained at 37° C. An arterial catheter to measure blood pressure was placed in the tail artery and a catheter to monitor intracranial pressure (ICP) was placed in the subarachnoid space under the subocciptal membrane. At either side of the skull, 3 mm from the midline and 4 mm anteriorly from the bregma, holes were drilled through the skull bone down to dura mater (without perforation) allowing the placement of two laser-Doppler flow probes to measure cortical CBF. Finally, a 27G blunt canula with side hole was introduced 6.5 mm anterior to bregma in the midline at an angle of 30° to the vertical. […]

[2] = system: AT1 receptor mRNA; test: Real-time PCR of receptor mRNA in cerebral arteries after SAH; details: MCA, BA and circle of Willis grouped; SAH rats
[3] = system: ETA receptor mRNA; test: as above; details: MCA, BA and circle of Willis grouped
Experimental: (§1) To quantify mRNA for the ETA, ETB and 5-HT1B receptors, RT-PCR and real-time detection monitoring the PCR products was employed. Total cellular RNA was extracted from BA, MCA and circle of Willis using the Trizol RNA isolation kit (Invitrogen, USA) following the suppliers instructions. Briefly, the arteries were homogenized in 1 ml of Trizol (Invitrogen, Sweden) by using a TissueLyser (VWR, Sweden). Subsequently 200 μl of chloroform was added and the samples were incubated in room temperature for 3 min, followed by centrifugation at 15000 g for 15 min at 4° C. The supernatant was collected and the organic phase discarded. 200 μl of chloroform was again added to remove all traces of phenol and the samples were centrifuged at 15000 g for 15 at 4° C. The aqueous supernatant was again collected and to precipitate the RNA equal amount of isopropanol was added and the samples incubated overnight at −20° C.
(§2) Subsequently, the RNA was centrifuged at 15000 g for 20 min at 4° C. […] Total RNA was determined using a GeneQuant Pro spectrophotometer measuring absorbance at 260/280 (Amersham Pharmacia Biotech, Uppsala, Sweden).
(§3) Reverse transcription of total RNA to cDNA was carried out using the Gene Amp RNA kit (Perkin-Elmer Applied Biosystems, USA) in a Perkin-Elmer 2400 PCR machine at 42° C. for 90 min and then 72° C. for 10 min. The real-time quantitative PCR was performed with the GeneAmp SYBR Green PCR kit (PE Applied Biosystems) in a Perkin-Elmer real-time PCR machine (GeneAmp 5700 sequence detection system). […] The system automatically monitors the binding of a fluorescent dye to double-strand DNA by real-time detection of the fluorescence during each cycle of PCR amplification. […]
(§4) PCR experiments were performed on BA, MCA and circle of Willis from SAH, SAH treated with raf inhibitor or PKC inhibitor and sham operated rats. Data were analysed with the comparative cycle threshold (CT) method (28). The CT values of EF-1 mRNA were used as a reference to quantify the relative amount of ETA, ETB and 5-HT1B mRNA. […]

[4] = system: 5-HT1B receptor mRNA; test: as above; details: MCA, BA and circle of Willis grouped; SAH rats
Experimental: as §1, §2, §3, §4

[5] = system: ETB receptor mRNA; test: as above; details: MCA, BA and circle of Willis grouped; SAH rats
Experimental: as §1, §2, §3, §4

effect of injection alone on cortical blood flow measured with Laser Doppler [1] | Compound | enhanced expression of AT1 receptor mRNA [2] | expression of ETA receptor mRNA, difference between sham, SAH and treated SAH [3] | enhanced expression of 5-HT1B receptor mRNA [4] | enhanced expression of ETB receptor mRNA [5]
no effect | Cn1cc(C2=C(c3cn(CCCN)c4ccccc34)C(=O)NC2=O)c2ccccc21 [RO-31-7549] | – | – | – | –
– | Oc1cc(-c2nc(-c3ccccc3)[nH]c2-c2ccncc2)ccc1Cl [SB386023-b] | inhibited | no difference | inhibited | inhibited
